Results reported in paper PMC10893357 (Viruses, 2024).

How the values were obtained:
Type in all cases: cell-based
[1] = system: SARS-CoV-2 Delta, lineage B.1.617.2 hCoV-19/Russia/PSK-2804/2021; assay: Antiviral CPE reduction assay in Vero E6 cells, Delta; details: Severe acute respiratory syndrome coronavirus 2, Vero C1008, 96 h
[2] = system: SARS-CoV-2 Omicron, BA.1 hCoV-19/Russia/Moscow171619-031221/2021; assay: Antiviral CPE reduction assay in Vero E6 cells, Omicron BA.1; details: Severe acute respiratory syndrome coronavirus 2, Vero C1008, 96 h
[3] = Cytotoxicity (MTT) in Vero E6 cells; details: African green monkey
[4] = system: SARS-CoV-2 Omicron, BA 5.2 hCov-19/Russia/Moscow-49415/2022; assay: Antiviral CPE reduction assay in Vero E6 cells, Omicron BA.5.2; details: Severe acute respiratory syndrome coronavirus 2, Vero C1008, 96 h
[5] = system: SARS-CoV-2 Omicron lineage BQ.1.1 hCoV-19/Russia/TOM-SRC-8663/2023; assay: Antiviral CPE reduction assay in Vero E6 cells, Omicron BQ.1.1; details: Severe acute respiratory syndrome coronavirus 2, Vero C1008, 96 h
[6] = system: SARS-CoV-2 Wuhan, lineage B.1.1 hCoV-19/Russia/Omsk202118_1707/2020; assay: Antiviral CPE reduction assay in Vero E6 cells, Wuhan; details: Severe acute respiratory syndrome coronavirus 2, Vero C1008, 96 h
[7] = system: SARS-CoV-2 Omicron, XBB 1.5 hCoV-19/Russia/SAK-SRC-8527/2023; assay: Antiviral CPE reduction assay in Vero E6 cells, Omicron XBB.1.5; details: Severe acute respiratory syndrome coronavirus 2, Vero C1008, 96 h

Row | Structure (SMILES) | EC50 [1] | EC50 [2] | CC50 at 4 days [3] | EC50 [4] | EC50 [5] | EC50 [6] | EC50 [7]
1 | CC(=O)C1=C(O)C=C2Oc3c(-c4csc(N/N=C/c5ccc(Br)s5)n4)c(O)c(C)c(O)c3[C@@]2(C)C1=O [(+)-3e] | 41.5 ± 3.1 µM | 20.7 ± 1.6 µM | 350 ± 21.2 µM | 20 ± 1.6 µM | 32.2 ± 2.6 µM | 25.3 ± 2.2 µM | 22.4 ± 2 µM
2 | CCC(CC)COC(=O)[C@H](C)N[P@](=O)(OC[C@H]1O[C@@](C#N)(c2ccc3c(N)ncnn23)[C@H](O)[C@@H]1O)Oc1ccccc1 [Remdesivir, reference compound] | 2.1 ± 0.16 µM | 2 ± 0.13 µM | 711 ± 21.2 µM | 4.45 ± 1 µM | 3.13 ± 0.9 µM | 3.8 ± 0.42 µM | 2.65 ± 0.6 µM
